Data: patent US20250197420A1, “MACROCYCLIC COMPOUNDS, COMPOSITIONS, AND METHODS OF USING THEREOF” (Sionna Therapeutics Inc., priority 2022, published 2025)

Tests used:
[1] = biological target: T1, Purified recombinant NBD1 (Homo sapiens, UniProt P13569); assay: Aggregation analysis using differential static light scattering (DSLS): thermal stability of NBD1; type: binding; details: NBD1 0.2 mg/ml; Tagg of compound well minus average Tagg of DMSO control wells
T1 construct: Purified recombinant NBD1 was produced using previously described methods; made in house
T1 sequence (P13569 423-646 limits assumed): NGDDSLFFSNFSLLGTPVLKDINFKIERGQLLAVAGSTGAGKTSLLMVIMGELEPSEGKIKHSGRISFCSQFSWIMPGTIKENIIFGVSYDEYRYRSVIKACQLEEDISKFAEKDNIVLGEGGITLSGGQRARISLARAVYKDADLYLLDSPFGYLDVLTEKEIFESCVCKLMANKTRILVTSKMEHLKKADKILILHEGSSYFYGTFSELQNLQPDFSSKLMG
Procedure, shortened: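 ΔTagg is compound-well aggregation temperature minus the DMSO-control mean, each Tagg being the inflection point of light scattering measured by DSLS during a 1 °C/min ramp up to 70 °C. The protein was purified NBD1 (0.2 mg/ml) in pH 7.6 buffer containing 2 mM ATP, 5 mM MgCl2 and 1% glycerol.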

[2] = test system: Primary human bronchial epithelial cells from a ΔF508 homozygous CF donor (CF-HBE cells); assay: TECC24 recording of CFTR-mediated transepithelial chloride transport, AUC fold over benchmark VX-809 @10 μM; type: cell-based; details: 48 hours incubation, AUC of forskolin-stimulated IEQ
Procedure, shortened: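 Values are the forskolin-to-inhibitor-172 AUC of equivalent Cl− current, derived from transepithelial voltage and resistance, divided by the VX-809 AUC and binned as A <3, B 3–6, C 6–20. Cells were pre-incubated with compound for 48 h at 36.5 °C; the bath (pH 7.4) received benzamil 10 μM, forskolin 10 μM, then CFTRinh-172 20 μM.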

## CN1CC(C)(C)COCC(C)(c2cccc(CCC(=O)O)c2)c2cnc([nH]2)-c2cc(ccc2F)Oc2c(F)cc3[nH]ccc3c2CCC1=O (single isomer, unassigned) [Compound 20C, 3-[3-(23,29-Difluoro-6,10,10,12-tetramethyl-13-oxo-8,25-dioxa-3,12,20,31-tetrazapentacyclo[24.3.1.12,5.016,24.017,21]hentriaconta-1(30),2,4,16,18,21,23,26,28-nonaen-6-yl)phenyl]propanoic acid]
[1]
  DSLS (ΔTagg): C (a value greater than 10 °C and less than or equal to 25 °C is marked “C”)
[2]
  TECC (test agent AUC divided by VX-809 AUC): C (a value between 6 and 20 is marked “C”)

## Cn1nc2nc1-c1cc(ccc1F)Oc1c(F)cc3[nH]ccc3c1CCNC(=O)OCC(C)(C)CC[C@@]2(C)c1cccc(CCC(=O)O)c1 (single isomer, unassigned) [Compound 98B]
[1]
  DSLS (ΔTagg): A (an ΔTagg value less than or equal to 5 °C is marked “A”)
[2]
  TECC (test agent AUC divided by VX-809 AUC): B (a value between 3 and 6 is marked “B”)

## CC1(c2cccc(CCC(=O)O)c2F)CCCCOC(=O)NCCc2c(c(F)cc3[nH]ccc23)Oc2ccc(F)c(c2)-c2ncc1[nH]2 (centres unmarked) [Compound 80, 3-[3-(23,29-Difluoro-6-methyl-12-oxo-11,25-dioxa-3,13,20,31-tetrazapentacyclo[24.3.1.12,5.016,24.017,21]hentriaconta-1(30),2,4,16,18,21,23,26,28-nonaen-6-yl)-2-fluoro-phenyl]propanoic acid]
[1]
  DSLS (ΔTagg): C (a value greater than 10 °C and less than or equal to 25 °C is marked “C”)
[2]
  TECC (test agent AUC divided by VX-809 AUC): B (a value between 3 and 6 is marked “B”)

## C[C@H](Cc1cccc([C@@]2(C)CCCC(C)(C)CN(C)C(=O)CCc3c(c(F)cc4[nH]ccc34)Oc3ccnc(c3)-c3nc2nn3C)c1)C(=O)O [Compound 119, (2R)-3-[3-[(6R)-23-fluoro-3,6,10,10,12-pentamethyl-13-oxo-25-oxa-3,4,12,20,29,31-hexazapentacyclo[24.3.1.12,5.016,24.017,21]hentriaconta-1(30),2(31),4,16,18,21,23,26,28-nonaen-6-yl]phenyl]-2-methyl-propanoic acid]
[1]
  DSLS (ΔTagg): B (a value above 5 °C and less than or equal to 10 °C is marked “B”)
[2]
  TECC (test agent AUC divided by VX-809 AUC): B (a value between 3 and 6 is marked “B”)

## CC1(C)CCCC(c2cccc(CCC(=O)O)c2)n2ccc(n2)-c2cc(ccc2F)Oc2c(F)cc3[nH]ccc3c2CCOC(=O)N1 (single isomer, unassigned) [Compound 95B, 3-[3-(23,29-difluoro-10,10-dimethyl-12-oxo-13,25-dioxa-5,11,20,31-tetrazapentacyclo-[24.3.1.12,5.016,24.017,21]hentriaconta-1(30),2(31),3,16(24),17(21),18,22,26,28-nonaen-6-yl)phenyl]propanoic acid]
[1]
  DSLS (ΔTagg): B (a value above 5 °C and less than or equal to 10 °C is marked “B”)
[2]
  TECC (test agent AUC divided by VX-809 AUC): B (a value between 3 and 6 is marked “B”)

## CC1(c2cccc(CCC(=O)O)c2)CCCCCC(=O)CNC(=O)Cc2c(c(F)cc3[nH]ccc23)Oc2ccc(F)c(c2)-c2ncc1[nH]2 (centres unmarked) [Compound 109, 3-[3-(24,30-Difluoro-6-methyl-12,15-dioxo-26-oxa-3,14,21,32-tetrazapentacyclo[25.3.1.12,5.017,25.018,22]dotriaconta-1(31),2,4,17,19,22,24,27,29-nonaen-6-yl)phenyl]propanoic acid]
[1]
  DSLS (ΔTagg): C (a value greater than 10 °C and less than or equal to 25 °C is marked “C”)
[2]
  TECC (test agent AUC divided by VX-809 AUC): B (a value between 3 and 6 is marked “B”)

## CN1CC(C)(C)CCC(C)(c2cccc(CCC(=O)O)c2)c2nc(n(C)n2)-c2cc(ccc2F)Oc2c(F)cc3[nH]ccc3c2CCC1=O (single isomer, unassigned) [Compound 75B, 3-[3-(22,28-difluoro-3,6,9,9,11-pentamethyl-12-oxo-24-oxa-3,4,11,19,30-pentazapentacyclo[23.3.1.12,5.015,23.016,20]triaconta-1(29),2(30),4,15,17,20,22,25,27-nonaen-6-yl)phenyl]propanoic acid]
[1]
  DSLS (ΔTagg): A (an ΔTagg value less than or equal to 5 °C is marked “A”)
[2]
  TECC (test agent AUC divided by VX-809 AUC): A (a TECC value less than 3 is marked “A”)

## CC1(C)CCCC(c2cccc(CCC(=O)O)c2)n2ccc(n2)-c2cc(ccc2F)Oc2c(F)cc3[nH]ccc3c2CCOC(=O)N1 (single isomer, unassigned) [Compound 95A, 3-[3-(23,29-difluoro-10,10-dimethyl-12-oxo-13,25-dioxa-5,11,20,31-tetrazapentacyclo-[24.3.1.12,5.016,24.017,21]hentriaconta-1(30),2(31),3,16(24),17(21),18,22,26,28-nonaen-6-yl)phenyl]propanoic acid]
[1]
  DSLS (ΔTagg): B (a value above 5 °C and less than or equal to 10 °C is marked “B”)
[2]
  TECC (test agent AUC divided by VX-809 AUC): B (a value between 3 and 6 is marked “B”)

## CN1CC(C)(C)CCCC(C)(c2cccc(CCC(=O)NO)c2)c2cnc([nH]2)-c2cc(ccc2F)Oc2c(F)cc3[nH]ccc3c2CCC1=O (single isomer, unassigned) [Compound 55, 3-[3-(23,29-difluoro-6,10,10,12-tetramethyl-13-oxo-25-oxa-3,12,20,31-tetrazapentacyclo-[24.3.1.12,5.016,24.017,21]hentriaconta-1(30),2,4,16,18,21,23,26,28-nonaen-6-yl)phenyl]propanehydroxamic acid]
[1]
  DSLS (ΔTagg): B (a value above 5 °C and less than or equal to 10 °C is marked “B”)
[2]
  TECC (test agent AUC divided by VX-809 AUC): A (a TECC value less than 3 is marked “A”)

## CN1CC(C)(C)CCCC(c2cccc(CCC(=O)O)c2)n2ccc(n2)-c2cc(ccc2F)Oc2c(F)cc3[nH]ccc3c2CCC1=O (centres unmarked) [Compound 38, 3-[3-(23,29-difluoro-10,10,12-trimethyl-13-oxo-25-oxa-5,12,20,31-tetrazapentacyclo[24.3.1.12,5.016,24.017,21]hentriaconta-1(30),2(31),3,16,18,21,23,26,28-nonaen-6-yl)phenyl]propanoic acid]
[1]
  DSLS (ΔTagg): A (an ΔTagg value less than or equal to 5 °C is marked “A”)
[2]
  TECC (test agent AUC divided by VX-809 AUC): A (a TECC value less than 3 is marked “A”)

## CN1CC2(CCCC(C)(c3cccc(CCC(=O)O)c3)c3cnc([nH]3)-c3cc(ccc3F)Oc3c(F)cc4[nH]ccc4c3CCC1=O)CC2 (centres unmarked) [Compound 34, 3-[3-(23,29-Difluoro-6,12-dimethyl-13-oxo-spiro[25-oxa-3,12,20,31-tetrazapentacyclo[24.3.1.12,5.016,24.017,21]hentriaconta-1(30),2,4,16,18,21,23,26,28-nonaene-10,1′-cyclopropane]-6-yl)phenyl]propanoic acid]
[1]
  DSLS (ΔTagg): C (a value greater than 10 °C and less than or equal to 25 °C is marked “C”)
[2]
  TECC (test agent AUC divided by VX-809 AUC): A (a TECC value less than 3 is marked “A”)

## C[C@@H](Cc1cccc(C2(C)CCCC(C)(C)N(C)S(=O)(=O)CCc3c(c(F)cc4[nH]ccc34)Oc3ccc(F)c(c3)-c3nc2nn3C)c1)C(=O)O (single isomer, unassigned) [Compound 117A]
[1]
  DSLS (ΔTagg): B (a value above 5 °C and less than or equal to 10 °C is marked “B”)
[2]
  TECC (test agent AUC divided by VX-809 AUC): A (a TECC value less than 3 is marked “A”)

## CC1(C)CNC(=O)CCc2c(c(F)cc3[nH]ccc23)Oc2ccc(F)c(c2)-c2ncc([nH]2)C(C)(c2cccc(CCC(=O)O)c2)CCOC1 (single isomer, unassigned) [Compound 67B, 3-[3-(24,30-difluoro-6,11,11-trimethyl-14-oxo-9,26-dioxa-3,13,21,32-tetrazapentacyclo[25.3.1.12,5.017,25.018,22]dotriaconta-1(31),2,4,17,19,22,24,27,29-nonaen-6-yl)phenyl]propanoic acid]
[1]
  DSLS (ΔTagg): B (a value above 5 °C and less than or equal to 10 °C is marked “B”)
[2]
  TECC (test agent AUC divided by VX-809 AUC): A (a TECC value less than 3 is marked “A”)

## CN1Cc2c(c(F)cc3[nH]ccc23)Oc2ccc(F)c(c2)-c2ncc([nH]2)C(C)(c2cccc(CCC(=O)O)c2)CCCOCC(C)(C)C1=O (centres unmarked) [Compound 73, 3-[3-(23,29-difluoro-6,12,12,14-tetramethyl-13-oxo-10,25-dioxa-3,14,20,31-tetrazapentacyclo[24.3.1.12,5.016,24.017,21]hentriaconta-1(30),2,4,16,18,21,23,26,28-nonaen-6-yl)phenyl]propanoic acid]
[1]
  DSLS (ΔTagg): C (a value greater than 10 °C and less than or equal to 25 °C is marked “C”)
[2]
  TECC (test agent AUC divided by VX-809 AUC): B (a value between 3 and 6 is marked “B”)

## [2H]C([2H])([2H])C1(c2cccc(CCC(=O)O)c2)CCCC(C)(C)CN(C)C(=O)CCc2c(c(F)cc3[nH]ccc23)Oc2ccc(F)c(c2)-c2ncc1[nH]2 (single isomer, unassigned) [Compound 66B]
[1]
  DSLS (ΔTagg): C (a value greater than 10 °C and less than or equal to 25 °C is marked “C”)
[2]
  TECC (test agent AUC divided by VX-809 AUC): A (a TECC value less than 3 is marked “A”)

## Cn1nc2nc1-c1cc(ccc1F)Oc1c(F)cc3[nH]ccc3c1COC(=O)NC(C)(C)CCCCC2c1cccc(CCC(=O)O)c1 (single isomer, unassigned) [Compound 97A, 3-[3-(23,29-difluoro-3,11,11-trimethyl-13-oxo-14,25-dioxa-3,4,12,20,31-pentazapentacyclo-[24.3.1.12,5.016,24.017,21]hentriaconta-1(30),2(31),4,16,18,21,23,26,28-nonaen-6-yl)phenyl]propanoic acid]
[1]
  DSLS (ΔTagg): C (a value greater than 10 °C and less than or equal to 25 °C is marked “C”)
[2]
  TECC (test agent AUC divided by VX-809 AUC): B (a value between 3 and 6 is marked “B”)
